Test results published in article PMC10945739, “Exploring Cassia mimosoïdes as a promising natural source of steroids with potent anti-cancer, urease inhibition, and antimicrobial properties” (RSC Advances, 2024).
Values after ≈ are worked out from the molar mass of the structure shown. Where two headings read alike, the source gives them in different places.

Experiments:
H.pylori = experiment: Antibacterial activity, agar well diffusion method; format: cell-based, Helicobacter pylori; settings: Helicobacter pylori; abstract; read-out: MIC against H. pylori
Text: Antibacterial activity of the isolated and synthesized compounds was perform using agar well method. Three bacterial strains selected for this experiment were H.pylori, B. subtilis and S. aureus, for all of three strains compounds show good to mederate inhibition. […] The presence of H. pylori in the stomach has been associated with a range of gastric disorders, including peptic ulcers, gastritis, and an increased risk of gastric cancer. The bacterium's ability to manipulate the gastric environment through urease activity underscores its role in the development and progression of these conditions. Different studies have targeted H. pylori and its urease activity as potential avenues for therapeutic intervention and disease management (Fig. 4).
The agar well diffusion method evaluated every compound separately. Each sterile Petri plate was aseptically filled with 20 mL of the agar medium, which was then […]. The media then solidified at room temperature. Various bacterial strains were put to agar plates using a sterile cotton swab. A 6 mm-diameter well was drilled using a sterilized cork borer. Each isolated compound was dissolved in 1 mL of a 20% DMSO solution. In a well with a diameter of 6 mm, […] of the standard drug and isolated compounds were added. […] The zone of inhibition was graphed and quantified in millimeters.[20]

S. aureus = experiment: Antibacterial activity, agar well diffusion method; format: cell-based, Staphylococcus aureus; settings: Staphylococcus aureus; abstract; read-out: MIC against S. aur
Experimental: The agar well diffusion method evaluated every compound separately. Each sterile Petri plate was aseptically filled with 20 mL of the agar medium, which was then autoclaved at 120 °C to destroy any germs. The media then solidified at room temperature. Various bacterial strains were put to agar plates using a sterile cotton swab. A 6 mm-diameter well was drilled using a sterilized cork borer. […] In a well with a diameter of 6 mm, 20 mL of the standard drug and isolated compounds were added. At 37 °C, the test plates were incubated for 24 hours. The test plates were incubated at 37 °C for 24 hours. The standard disc containing 50 mg of ciprofloxacin served as a positive control for antibacterial activity, and DMSO served as a negative control.

Jack bean urease = Jack bean urease (Canavalia ensiformis, UniProt P07374); experiment: biochemical; format: biochemical; settings: for inhibition at 500 µM: pH 6.8, read-out: % Inhibition of urease
Sequence of Jack bean urease (P07374 whole entry, looked up): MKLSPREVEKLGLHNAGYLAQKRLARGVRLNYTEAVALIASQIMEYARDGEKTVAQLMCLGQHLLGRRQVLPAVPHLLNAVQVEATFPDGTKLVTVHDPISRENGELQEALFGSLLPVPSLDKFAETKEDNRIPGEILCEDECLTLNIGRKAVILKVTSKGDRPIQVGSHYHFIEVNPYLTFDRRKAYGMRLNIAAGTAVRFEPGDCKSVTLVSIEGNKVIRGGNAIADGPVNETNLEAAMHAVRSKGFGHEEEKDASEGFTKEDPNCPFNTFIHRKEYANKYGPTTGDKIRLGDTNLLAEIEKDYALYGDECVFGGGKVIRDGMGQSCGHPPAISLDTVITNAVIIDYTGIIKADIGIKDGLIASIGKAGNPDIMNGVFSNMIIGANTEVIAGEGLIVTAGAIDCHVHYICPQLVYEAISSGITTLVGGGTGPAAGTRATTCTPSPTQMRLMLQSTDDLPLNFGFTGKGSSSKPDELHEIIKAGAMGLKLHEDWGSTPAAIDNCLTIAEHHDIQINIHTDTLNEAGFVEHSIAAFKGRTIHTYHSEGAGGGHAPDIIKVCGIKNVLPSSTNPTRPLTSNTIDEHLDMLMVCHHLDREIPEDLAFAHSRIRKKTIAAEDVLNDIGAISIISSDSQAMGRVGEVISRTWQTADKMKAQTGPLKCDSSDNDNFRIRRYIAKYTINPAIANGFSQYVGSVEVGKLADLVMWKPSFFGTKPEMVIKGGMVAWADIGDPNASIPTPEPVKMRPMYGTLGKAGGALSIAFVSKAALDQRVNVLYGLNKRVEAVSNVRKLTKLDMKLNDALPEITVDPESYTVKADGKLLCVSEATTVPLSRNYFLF
Experimental: The inhibition potential of the isolated compounds against urease was investigated using a SpectraMax M2 reader using 96-well microplates.
The kinetic assay involved preparing varying concentrations of both the test compound and the substrate (urea), spanning 0 μM, 5 μM, 10 μM, 15 μM, and 20 μM. The resulting data was utilized to construct a Lineweaver–Burk plot.
In 96-well plates were incubated at 37 °C for 15 min, reaction mixtures consisting of 25 μL of test compounds (each 0.5 mM), 25 μL of enzyme solution (Jack bean urease) and 55 μL of buffers containing 20.79 mM urea. The indophenol method described by Weatherburn[21] was used to determine urease inhibitor activity by measuring ammonia production. Briefly, to each well were added 70 μL of alkaline reagent (0.5% w/v NaOH and 0.1% active chloride, NaOCl) and 45 μL of phenolic reagent (1% w/v phenol and 0.005% w/v sodium nitroprusside). The microplate reader (Molecular Devices, USA) was used to measure the increase in absorbance at 650 nm after 50 min. A final volume of 245 μL was required to perform all reactions in a triplicate. The results (absorbance change per minute) were processed using SoftMax Pro software (Molecular Devices, USA). All assays were performed at pH 6.8. Inhibition percentages were calculated from the formula% Inhibition = 100 − (Abs(sample)/Abs(control)) × 100where “A” is the absorbance of the “test well” as well as the “control”. Thiourea was used as a standard.

Alternaria alternata = experiment: Antifungal bioassay, poisoned medium technique; format: cell-based; settings: 168 h, read-out: MIC values against Alternaria alternata
Experimental: (§1) Anti-microbial assays of the isolated componds were performed against the selected strain of fungi i.e., Alternaria alternata, Aspergillus fumigatus, Aspergillus niger, and Penicillium citrii.
(§2) Alternaria alternata, Aspergillus fumigatus, Aspergillus niger, and Penicillium citrii strains were obtained from the Biotechnology lab at COMSATS University Islamabad. The antifungal activity of isolated compounds was assessed using poisoned medium technique. Two percent malt extract agar medium was generated by autoclaving at 121 °C for 30 minutes. Weighed volumes of the compounds were dissolved in […] of sterilized distilled water and put to flasks containing 59.5 mL of malt extract agar medium while they were still molten to obtain final concentrations of 100, 300, 500, 700, 900, and 1000 ppm. The control received the same amount of distilled water. Each sterile Petri plate with a diameter of 90 mm was filled with 20 mL of each medium and allowed to solidify. 5 mm diameter mycelial discs were produced from the tips of 5–7 day-old cultures of the four test fungus species and put in the center of each Petri dish using a sterile cork borer. Every treatment was duplicated three times. Plates were cultured in an incubator at 25 ± 2 °C for seven days. To calculate the rate of fungal growth, the three diameters of each colony were measured at right angles and averaged. Table 2 MIC values (μM) of the isolated compounds against Alternaria alternata, Aspergillus fumigatus, Aspergillus niger, and Penicillium citrii strains.[19]

Aspergillus fumigatus = experiment: Antifungal bioassay, poisoned medium technique; format: cell-based; settings: 168 h, read-out: MIC values against Aspergillus fumigatus
Experimental: as §1, §2

Aspergillus niger = experiment: Antifungal bioassay, poisoned medium technique; format: cell-based; settings: 168 h, read-out: MIC values against Aspergillus niger
Experimental: as §1, §2

Penicillium citrii = experiment: Antifungal bioassay, poisoned medium technique; format: cell-based; settings: 168 h, read-out: MIC values against Penicillium citrii
Experimental: as §1, §2

[1] = tested on: human HepG2 hepatic cancer cells; experiment: MTT cell viability assay; format: cell-based; settings: Homo sapiens; for viability at 200 µg: HepG2, 48 h; for IC50: HepG2, calculated using Graph Pad Prism software, read-out: IC50 against HepG2
Experimental: The human liver cells were cultivated in Dulbecco's modified Eagle medium (DMEM) in which 100 U mL^−1 penicillin, 10% fetal bovine and […] streptomycin were added and kept at 37 °C in a […] carbon dioxide induced humidified environment. The human liver cells prepared as per above procedure were then treated with synthesized compounds diluted to 0.05% DMSO concentration.
Using MTT assay, the % viability of cancer cells 36 was evaluated. According to the standard procedure, HepG2 cells were treated with various dosages of synthesized compounds for 48 hours each. The cells were then incubated for 4 hours at 37 °C with 10μ MTT reagent (5 mg mL^−1). Next, in 150 μL DMSO was added to dissolve formazan crystals. The λmax was recorded at 409 nm in a microplate reader (thermos scientific).

[2] = poisoned medium, 25 ± 2 °C, seven days
[3] = HepG2, MTT, 48 hours, at 200 μg

Row | SMILES | IC50 (Jack bean urease) [µM] | inhibition at 500 µM (Jack bean urease) [%] | MIC (Alternaria alternata; [2]) [µM] | MIC (Aspergillus fumigatus; [2]) [µM] | MIC (Aspergillus niger; [2]) [µM] | MIC (Penicillium citrii; [2]) [µM] | other results
1 | C=C(CCC(=CC)C(C)C)C1CCC2C3=CCC4C(C)C(O)CCC4(C)C3CCC12C (stereo not drawn) [Compound 1, 21-methylene-24-ethylidene lophenol] | 1.02 ± 0.35 | 82.3 | – | – | – | – | MIC (H.pylori): 0.28 µg/mL (≈ 0.659 µM); MIC (S. aureus): 0.12 µg/mL (≈ 0.283 µM); mode of inhibition, Lineweaver–Burk plot (Jack bean urease; urea and compound 0–20 μM): competitive
2 | O=c1cc(-c2ccc(O)c(O)c2)oc2c([C@@H]3O[C@H](CO)[C@@H](O)[C@H](O)[C@H]3O)c(O)cc(O)c12 [Luteolin-8-C-β-D-glucopyranoside] | – | – | – | – | – | – | MIC (Alternaria alternata): 0.021 ± 0.005 µM (≈ 9.42 ng/mL); MIC (Aspergillus fumigatus): 0.014 ± 0.005 µM (≈ 6.28 ng/mL); MIC (Aspergillus niger): 0.013 ± 0.006 µM (≈ 5.83 ng/mL); MIC (Penicillium citrii): 0.015 ± 0.008 µM (≈ 6.73 ng/mL)
3 | O=c1cc(-c2ccc(O)cc2)oc2c([C@@H]3O[C@H](CO)[C@@H](O)[C@H](O)[C@H]3O)c(O)cc(O)c12 [Apigenin-8-C-β-D-glucopyranoside] | – | – | – | – | – | – | MIC (Alternaria alternata): 0.025 ± 0.007 µM (≈ 10.8 ng/mL); MIC (Aspergillus fumigatus): 0.01 ± 0.006 µM (≈ 4.32 ng/mL); MIC (Aspergillus niger): 0.015 ± 0.001 µM (≈ 6.49 ng/mL); MIC (Penicillium citrii): 0.01 ± 0.006 µM (≈ 4.32 ng/mL)
4 | COc1cc(O)cc2oc(-c3ccc(O)c(O)c3)cc(=O)c12 [Luteolin-5-methyl ether] | – | – | 0.03 ± 0.006 (≈ 9.01 ng/mL) | 0.04 ± 0.002 (≈ 12 ng/mL) | 0.01 ± 0.006 (≈ 3 ng/mL) | 0.06 ± 0.004 (≈ 18 ng/mL) | –
5 | O=c1cc(-c2ccc(O)c(O)c2)oc2c([C@@H]3O[C@H](CO)[C@@H](O)[C@H](O)[C@H]3O)c(O)cc(O)c12 [Compound 6, Luteolin-8-C-β-D-glucopyranoside] | 5.03 ± 0.12 | 71.5 | – | – | – | – | viability at 200 µg [1, 3]: 89.2 ± 2.5%
6 | COc1cc(O)c2c(c1)C(=O)c1cc(C)cc(O)c1C2=O [Physcion] | – | – | 0.015 ± 0.005 (≈ 4.26 ng/mL) | 0.035 ± 0.006 (≈ 9.95 ng/mL) | 0.09 ± 0.009 (≈ 25.6 ng/mL) | 0.03 ± 0.005 (≈ 8.53 ng/mL) | –
7 | CCC(CCC(C)C1CCC2C3CC(O)C4=CC(=O)CCC4(C)C3CCC12C)C(C)C (stereo not drawn) [Synthesized compound] | – | 69 | – | – | – | – | IC50 (Jack bean urease; read-out: IC50 ± SEM, urease, pH 6.8): 8.03 ± 0.19 µM
8 | O=c1cc(-c2ccc(O)c(O)c2)oc2cc(O)c([C@@H]3O[C@H](CO)[C@@H](O)[C@H](O)[C@H]3O)c(O)c12 [Luteolin-6-C-β-D-glucopyranoside] | – | – | 0.06 ± 0.007 (≈ 26.9 ng/mL) | 0.25 ± 0.003 (≈ 112 ng/mL) | 0.0072 ± 0.0003 (≈ 3.23 ng/mL) | 0.022 ± 0.003 (≈ 9.86 ng/mL) | –
9 | O=c1cc(-c2ccc(O)c(O)c2)oc2cc(O)ccc12 [Compound 3, 3′,4′,7-Trihydroxyflavone] | – | – | 0.056 ± 0.001 (≈ 15.1 ng/mL) | 0.013 ± 0.003 (≈ 3.51 ng/mL) | 0.032 ± 0.005 (≈ 8.65 ng/mL) | 0.016 ± 0.01 (≈ 4.32 ng/mL) | –
10 | CCCCCCCCCCCCCCCCCCC(=O)O [Compound 14, Nonadecanoic acid] | 1.95 ± 0.31 | 80.4 | – | – | – | – | –
11 | CC[C@H](CC[C@@H](C)[C@H]1CC[C@H]2[C@@H]3C[C@H](O)C4=C[C@@H](O)CC[C@]4(C)[C@H]3CC[C@]12C)C(C)C [Compound 10, Stigmast-4-en-3β,6α-diol] | 6.68 ± 0.11 | 76.6 | – | – | – | – | viability at 200 µg [1, 3]: 14.5 ± 0.68%; IC50 [1]: 7.8 µM
12 | COc1cc(O)c2c(c1)C(=O)c1cc(C)cc(O)c1C2=O [Compound 13, Physcion] | 6.24 ± 0.3 | 63.5 | – | – | – | – | viability at 200 µg [1]: 87.4 ± 2.55%
13 | CC[C@H](CC[C@@H](C)[C@H]1CC[C@H]2[C@@H]3CC(=O)C4=CC(=O)CC[C@]4(C)[C@H]3CC[C@]12C)C(C)C [Compound 9, Stigmast-4-en-3,6-dione] | – | 13.4 | – | – | – | – | IC50 [1]: 7.8 µM
